Results published in patent publication US20260097105A1, “SYSTEMS, FORMULATIONS AND METHODS FOR GENERATING UNIVERSAL PEPTIDE/MHC COMPLEXES WITH ENGINEERED DISULFIDE CONNECTING THE HEAVY AND LIGHT CHAINS” (priority 2022, published 2026).

Key:
MR1 = target: T1, MR1 (Homo sapiens, UniProt Q95460, C283S/G138C); experiment: Fluorescence polarization competitive ligand binding (JYM20, DCF-loaded open MR1); conditions: 10 nM JYM20; 200 nM DCF-loaded open MR1; pH 7.4
T1 construct: made in house; host or cells: Escherichia coli BL21(DE3) per the general methods
T1 sequence (Q95460 with tags, fused parts or gaps G138C/C283S): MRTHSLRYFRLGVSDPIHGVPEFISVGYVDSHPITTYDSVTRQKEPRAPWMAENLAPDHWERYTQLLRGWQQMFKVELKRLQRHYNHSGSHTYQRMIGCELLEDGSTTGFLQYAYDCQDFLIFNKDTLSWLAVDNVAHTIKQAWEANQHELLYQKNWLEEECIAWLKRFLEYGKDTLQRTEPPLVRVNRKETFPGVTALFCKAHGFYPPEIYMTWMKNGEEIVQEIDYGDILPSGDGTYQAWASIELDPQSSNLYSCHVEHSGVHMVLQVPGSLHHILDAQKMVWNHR
T1 sequence (as listed by the source partner): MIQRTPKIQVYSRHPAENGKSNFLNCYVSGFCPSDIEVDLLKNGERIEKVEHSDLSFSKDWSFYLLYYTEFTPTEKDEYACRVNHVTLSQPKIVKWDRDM
Procedure: To optimize fluorescence polarization (FP), a direct binding assay between JYM20 and MR1 was conducted to determine the minimum concentration of MR1 and JYM20 required for a maximal signal, as well as the buffer conditions. The FP signal is generated by polarized excitation wavelengths, resulting in depolarized emission when JYM20 is free in solution (with low FP value). […] Because DCF is not a covalent binding ligand, the DCF-loaded open MR1 and JYM20 can together screen a wide range of cancer metabolites for MR1.
Briefly, a buffer consistent of 150 mM NaCl, 20 mM sodium phosphate, 0.05% Tween-20, pH 7.4 was used since Applicants don't need nonphysiologically acidic environment to break the Schiff base. A serial dilution of cancer metabolites in a range of 60-0.06 mM, which were selected from the preliminary in silico screening, was added to 200 nM MR1 and 10 nM JYM20 in a final volume of 100 μL. The kinetic association was monitored for 16 hours, and polarization measurements were recorded every 186 seconds. Excitation and emission values used to monitor the fluorescence of TAMRA-labeled peptides were 531 and 595 nm. All experiments were performed in triplicates at room temperature. Raw parallel (III) and perpendicular emission intensities (I⊥) were collected and converted to polarization (mP) values using the equation 1000*[(III−(G*I⊥))/(III+(G*I⊥))]. An optimized G-factor was determined to be 0.33 for TAMRA-labeled peptides in calculating baseline fluorescence. Non-linear regression fitting of one phase association allowed calculating plateau polarization (mP) values for each kinetic curve. Log transformed values of each peptide concentration were plotted against the plateau mP value, and an IC50 curve was fit using log (inhibitor) vs. response (three parameters) curve from GraphPad Prism v9^9.

[1] = system: WT or open HLA-A*29:02/FTSDYYQLY; experiment: Fluorescence polarization IC50 competition assay; type: binding, human; conditions: competitor vs FITCKLIDVFHQY
Excerpt: Kinetic association measurements were collected as previously described. Non-linear regression fitting allowed calculating plateau polarization (mP) values for each kinetic curve. Log transformed values of each peptide concentration were plotted against the plateau mP value, and an IC50 curve was fit.

Row | Compound | relative binding affinities (IC50) to MR1 (MR1) | IC50, open compared to WT [1]
1 | O=C(O)C1=CC(=O)[C@@H](O)[C@H](O)C1 [3DA, 3-Dehydroshikimic acid] | low-millimolar | –
2 | O=C(O)Cc1ccccc1Nc1c(Cl)cccc1Cl [DCF, diclofenac, reference compound] | low-millimolar | –
3 | O=C(O)C1=C[C@@H](O)[C@@H](O)[C@H](O)C1 [SKA, shikimic acid] | low-millimolar | –
4 | O=c1ccn([C@@H]2O[C@H](COP(=O)(O)O)[C@@H](O)[C@H]2O)c(=O)[nH]1 [UMP, Uridine 5′-monophosphate] | low-millimolar | –
5 | ALIDVFHQY | – | same IC50
